# Experimental data published in patent US20230146795A1, “ENHANCEMENT OF ANTI-TUMOR ACTIVITY OF SHP2 INHIBITOR PYRIMIDINONE IN COMBINATION WITH NOVEL CANCER MEDICINES IN CANCERS” (TAIHO PHARMACEUTICAL CO., LTD., priority 2020, published 2023).
# Key:
# 491 cell lines = test: In vitro cell line screening, both panels overall; assay type: cell-based, human; details: Total panel, sensitive = maximum inhibition greater than 50% relative to DMSO, max 3 μM Compound 1, 1 μM Compound 9, 120-hour incubation
# Procedure: (§1) Cells from human cancer cells lines (from commercial sources such as ATCC or ECCAC) were grown as 3D cultures by seeding cells into round-bottom ultra-low attachment 96-well tissue culture plates (Corning) followed by centrifugation. Cells were allowed to recover for 16-24 hours prior to compound treatment. Compounds or dimethyl sulfoxide (DMSO) were added at various combinations of compound concentrations in a final DMSO concentration of up to 0.5% (v/v). Following a total of 120-hour incubation, CellTiter-Glo 3D Reagent(registered trademark) (Promega) was added. Plates were incubated for 10 minutes with gentle shaking at room temperature to lyse the cells, then incubated for further 40 minutes at room temperature to stabilize luminescence signal. After mixing, the mixture was transferred to a fresh plate and luminescence was determined on EnVision plate reader (Perkin Elmer).
# as §1, with “as 2D monolayers” for “as 3D cultures”, “seeding onto flat-bottom” for “seeding cells into round-bottom ultra-low attachment”, “plates (Corning).” for “plates (Corning) followed by centrifugation.”, “CellTiter-Glo reagent(registered” for “CellTiter-Glo 3D Reagent(registered”, “further 10” for “further 40”, “fresh plate,” for “fresh plate”
# (§2) For both 3D and 2D assays, the combination was tested as matrix of various concentrations of Compound 1 and Compound 9. The maximum concentrations of Compound 1 and Compound 9 used were 3 μM and 1 μM, respectively. Signals were normalized to that of the average of the DMSO control wells. […] For each cell line, the maximum % inhibition values were obtained for Compound 1 alone, Compound 9 alone and the combination of both compounds. The degree of drug interaction (i.e. synergy, additivity or antagonism) was quantified for each cell line by the Bliss independence model using the Synergyfinder R package (Ref: He L. et al. (2018) Methods for High-throughput Drug Combination Screening and Synergy Scoring. In: von Stechow L. (eds) Cancer Systems Biology. Methods in Molecular Biology, vol 1711. Humana Press, New York, N.Y.). For each cell line, a single score metric, the sum of synergy and antagonism across screened drug concentrations (SUM_SYN_ANT) (Ref: Di Veroli G. Y. et al (2016) Bioinformatics 32(18):2866-2868), was calculated. Synergy was defined as a score of 21 or above.
# [1] = tested on: NCI-H358, MKN45, NCI-H23, RT 4, MV-4-11, RMG-I; test: Anti-proliferation assay, summary over the cell lines of table 3; assay type: cell-based
# Procedure: Cell lines were obtained from ATCC or Health Science Research Resources Bank.
# 384 well culture plate (781086, Greiner Bio-One International) was used for cell survival rate measurement assay. Each cell lines were collected by ordinary method, then suspended in indicated medium containing 10% fetal bovine serum in table 3. The number of cells seeded per well was set to 500 cells/20 μL. After incubation at 37° C. for 24 hours under 5% CO2, Compound 1 and additional compound having an antitumor effect or a vehicle (DMSO) was added to each well by using D300e Digital Dispenser (Tecan). The concentration of Compound 1 was set to 10 concentrations. The concentration of each anti-cancer reagents set to 8 concentrations including 0 nM. After adding the medicine to the cells, the cells were further incubated at 37° C. for 3 days under 5% CO2. Cell survival rates were calculated by adding 20 μL of CellTiter-Glo(registered trademark) 2. 0 (Promega) solution to each well, incubating the cells at room temperature for 10 minutes, and then measuring the chemiluminescence intensity of each well using a plate reader (ARVO).
# A combination index (CI) value at each combined concentration of the medicines was determined.
# [2] = tested on: 97 cell lines harboring driver mutations in KRAS; test: In vitro cell line screening, 3D cultures (CellTiter-Glo 3D), KRAS panel; assay type: cell-based, human; details: sensitive = maximum inhibition greater than 50% relative to DMSO, max 3 μM Compound 1, 1 μM Compound 9, 120-hour incubation
# Procedure: as §1, with “The effect of Compound 1 in combination with an ERK inhibitor, Compound 9, on 97 cell lines harboring driver mutations in KRAS (G12A, G12C, G12F, G12R, G12S, G12V, G13C, G13D, A59G, Q61H, Q61K, Q61L or A146T) was assessed using the following technique. Cells from” for “Cells from”
# as §2
# [3] = tested on: human colorectal cancer cell line SW837; test: Antitumor effect on SW837 tumor subcutaneously implanted to SCID-Beige mouse; assay type: in vivo; details: Compound 1 alone, 25 mg/kg/day orally once a day for 28 days; day of assessment
# Procedure: The day at which the grouping was carried out was defined as Day 0.
structure (smiles),measurement,setting,value
"Cn1nc2ccc(-c3c[nH]c4nc(N5[C@H]6CC[C@@H]5[C@H](N)C6)n(C)c(=O)c34)c(Cl)c2c1Cl [Compound 1, 2-((1R,2R,4S)-2-amino-7-azabicyclo[2.2.1]heptan-7-yl)-5-(3,4-dichloro-2-methyl-2H-indazol-5-yl)-3-methyl-3,7-dihydro-4H-pyrrolo[2,3-d]pyrimidin-4-one]",Number of cell lines sensitive,491 cell lines,175
same,Number of cell lines sensitive (% of total),491 cell lines,(35.6) %
same,anti-proliferation activity in combination,"[1]; with ALK, Her family (EGFR and HER2), BCR-ABL, FLT3, multi-kinase (PDGFR and VEGFR), c-kit inhibitor",synergistically enhanced
same,anti-proliferation activity in combination,[1]; with BCL2 inhibitor,synergistically enhanced
same,anti-proliferation activity in combination,[1]; with CDK4/6 inhibitor,synergistically enhanced
same,anti-proliferation activity in combination,[1]; with HDAC inhibitor,synergistically enhanced
same,anti-proliferation activity in combination,[1]; with PI3K inhibitor or AKT inhibitor,synergistically enhanced
same,anti-proliferation activity in combination,"[1]; with RAF inhibitor, MEK inhibitor or ERK inhibitor",synergistically enhanced
same,anti-proliferation activity in combination,[1]; with anthracycline antibiotics,synergistically enhanced
same,anti-proliferation activity in combination,[1]; with anti-metabolite,synergistically enhanced
same,anti-proliferation activity in combination,[1]; with microtubule inhibitor,synergistically enhanced
same,anti-proliferation activity in combination,[1]; with platinum antitumor agent,synergistically enhanced
same,anti-proliferation activity in combination,[1]; with topoisomerase inhibitor,synergistically enhanced
same,Number of cell lines sensitive,[2],38
same,Number of cell lines sensitive (% of total),[2],(39.2) %
same,T/C (%),[3],65.0%
